Measurements reported in publication PMC10849753, “Antiproliferative activity of platinum(II) and copper(II) complexes containing novel biquinoxaline ligands” (Metallomics: Integrated Biometal Science, 2024).

Test system: A172, LN229, U87, A549, Hela, PC-3, and MDA-231 cells
Test: ROS production, DCFDA assay, all used cell lines
Assay type: cell-based, human
Details: positive control at 500 μM concentration
Procedure: The reactive oxygen species (ROS) formation on the selected cell lines upon exposure to the synthesized Cu(II) and Pt(II) complexes was investigated using the oxidation-sensitive dye, 2ʹ,7ʹ-dichlorofluorescein diacetate (DCFDA, #D6883 Sigma-Aldrich). The cell lines (A172, LN229, U87, HeLa, MDA-231, PC-3, A549, and CHO-K1) were seeded (6 × 10^3 cells/well) into the 96-well plates and incubated at 37°C and 5% CO2 for 24 h. After that, the Cu(II) and Pt(II) complexes, at a concentration range of 6.25 to 100 μM, were added to the cell monolayers. Hydrogen peroxide (H2O2), at concentrations from 50 to 500 μM, was utilized as a positive control. The following day, 5 μM of DCFDA in PBS was added to the cell monolayers and, then, the plate was incubated for 30–45 min. Consequently, the fluorescence intensity was measured with 485 nm excitation and 535 nm emission wavelengths using a microplate reader. The fluorescence values of each treatment were normalized to the negative control, including only growth medium without any treatment. The assay was repeated in triplicate.

OO [H2O2, Hydrogen peroxide, reference compound]
ROS generation: 3 fold
